Test results published in patent publication US10391095B2, “DNA-PK inhibitors” (Vertex Pharmaceuticals Incorporated, priority 2012, dated 2019).

target: DNA-PK (Homo sapiens, UniProt P78527); assay: DNA-PK inhibition assay (radiometric, 33P-ATP); assay type: biochemical; conditions: 100 μM ATP, competitive tight-binding fit
Summary of the method: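 Approx. 6 nM DNA-PK with 10 µg/mL sheared dsDNA, 0.8 mg/mL peptide substrate and 100 µM 33P-ATP in HEPES pH 7.5, 10 mM MgCl2; 45 min, phosphoric acid quench. Phosphopeptide captured on filter plates and counted by scintillation; Ki from a competitive tight-binding model fit.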

Ki, < 30 nM:
CCNc1ccc(-c2cc(NC[C@@H](C)c3cccc4c(C(=O)NC)c(F)cnc34)ncn2)cn1 [Compound 979]
CNC(=O)c1ccnc2c([C@H](C)CNc3cc(-c4cnnc(C)c4)ncn3)cccc12 [Compound 841]
CNC(=O)c1ccnc2c([C@H](C)CNc3cc(-c4cncc(C)c4)ncn3)ccc(F)c12 [Compound 651]
CNC(=O)c1ccc([C@H](C)CNc2cc(-c3ccc(NC4CCN(C)CC4)nc3)ncn2)c(OC)c1 [Compound 348]
CNC(=O)c1ccnc2c([C@H](C)CNc3cc(-c4ccc(F)nc4)ncn3)cccc12 [Compound 603]
CNC(=O)c1ccc([C@H](C)CNc2cc(-c3ccc4[nH]c(=O)[nH]c4c3)ncn2)c(OC)c1 [Compound 315]
CNC(=O)c1ccnc2c([C@H](C)CNc3cc(-c4ccc(NCc5nc6ccccc6[nH]5)nc4)ncn3)cccc12 [Compound 710]
CNC(=O)c1ccc([C@H](C)CNc2cc(-c3cnc4c(c3)OCCN4C)ncn2)c(OC)c1 [Compound 490]
COc1cscc1C(C)CNc1cc(-c2ccc(N3CCN(C)CC3)nc2)ncn1 (stereo not drawn) [Compound 146]
Cc1ccc(-c2cc(NCC(C)c3ccccc3OCC3CCCO3)ncn2)cn1 (stereo not drawn) [Compound 195]
COc1ccc(Br)cc1C(C)CNc1cc(-c2ccc(C)nc2)ncn1 (stereo not drawn) [Compound 245]
CNC(=O)c1ccnc2c([C@H](C)CNc3cc(-c4ccc(C5CCC5)nc4)ncn3)ccc(F)c12 [Compound 850]
CNC(=O)c1ccnc2c([C@H](C)CNc3cc(-c4cnc(NC)c(C)c4)ncn3)cccc12 [Compound 961]
CNC(=O)c1ccc(C(C)CNc2cc(-c3cnc4c(cnn4C[C@@H](O)CO)c3)ncn2)c(OC)c1 (stereo partly drawn) [Compound 225]
CNC(=O)c1ccnc2c([C@H](C)CNc3cc(-c4ccc(C(C)C)nc4)ncn3)ccc(F)c12 [Compound 853]
CCNC(=O)c1ccnc2c([C@H](C)CNc3cc(-c4ccc(C)nc4)ncn3)cccc12 [Compound 545]
CNC(=O)c1ccc([C@H](C)CNc2cc(-c3ccc(NC(C)=O)cc3)ncn2)c(OC)c1 [Compound 317]
COc1cscc1C(C)CNc1cc(-c2cnc3c(cnn3CCO)c2)ncn1 (stereo not drawn) [Compound 261]
CNC(=O)c1c(F)cnc2c([C@H](C)CNc3cc(-c4cnc(C5CCOCC5)nc4)ncn3)cccc12 [Compound 833]
Cc1ccc(-c2cc(NC[C@@H](C)c3cccc4c(=O)n(C)cnc34)ncn2)cn1 [Compound 698]
COc1cscc1C(C)CNc1cc(-c2cnc3c(cnn3C3CCN(C)CC3)c2)ncn1 (stereo not drawn) [Compound 228]
CNC(=O)c1ccnc2c([C@H](C)CNc3cc(-c4cnc(F)c(C)c4)ncn3)cccc12 [Compound 951]
CNC(=O)c1c(F)cnc2c([C@H](C)CNc3cc(-c4csc(-n5cccn5)n4)ncn3)cccc12 [Compound 782]
CNC(=O)c1ccnc2c([C@H](C)CNc3cc(-c4ccc(C)nc4)ncn3)ccc(F)c12 [Compound 515]
[2H]C([2H])([2H])NC(=O)c1ccnc2c([C@H](C)CNc3cc(-c4cnc(C)nc4)ncn3)cccc12 [Compound 654]
COc1ccccc1[C@H](C)CNc1cc(-c2cnc(C)nc2)ncn1 [Compound 138]
COc1cscc1C(C)CNc1cc(-c2ccc(C)nc2)ncn1 (stereo not drawn) [Compound 144]
CNC(=O)c1c(F)cnc2c([C@H](C)CNc3cc(-c4cnc5c(c4)COC5)ncn3)cccc12 [Compound 966]
COc1ccccc1[C@H](C)CNc1cc(-c2cnc3c(cnn3CC(O)CO)c2)ncn1 (single isomer, unassigned) [Compound 149]
CNC(=O)c1ccnc2c([C@H](C)CNc3cc(-c4ccc(C(C)O)nc4)ncn3)cccc12 (stereo partly drawn) [Compound 730]
COc1ccccc1CCNc1cc(-c2ccc(N3CCCC3)nc2)ncn1 [Compound 46]
C[C@H](CNc1cc(-c2cnc3c(cnn3C3COC3)c2)ncn1)c1ccnc2c1OCCO2 [Compound 493]
CCOc1ccccc1[C@H](C)CNc1cc(-c2ccc(N3CCN(C)CC3)nc2)ncn1 [Compound 152]
CC(CNc1cc(-c2cnc3c(cnn3CCO)c2)ncn1)c1csc2cccnc12 (stereo not drawn) [Compound 399]
CNC(=O)c1c(F)cnc2c([C@H](C)CNc3cc(-c4ccc(C5(N)CC5)nc4)ncn3)cccc12 [Compound 941]
CNC(=O)c1ccnc2c([C@H](C)CNc3cc(-c4ccc(N)nc4)ncn3)cccc12 [Compound 586]
CNC(=O)c1ccnc2c([C@H](C)CNc3cc(-c4ccc5c(c4)CC(=O)N5C)ncn3)cccc12 [Compound 825]
COc1ccccc1[C@H](C)CNc1cc(-c2ccnc(NCCSC)c2)ncn1 [Compound 210]
CNC(=O)c1ccnc2c([C@H](C)CNc3cc(-c4ccc5c(c4)CCO5)ncn3)cccc12 [Compound 842]
CN1CCN(c2ccc(-c3cc(NCCc4cccc5c4OCC5)ncn3)cn2)CC1 [Compound 30]
Cc1ccc(-c2cc(NCC(C)c3ccccc3OCCCO)ncn2)cn1 (stereo not drawn) [Compound 182]
CNC(=O)c1ccc(C(C)CNc2cc(-c3ccc(OC4CN(C(C)=O)C4)nc3)ncn2)c(OC)c1 (stereo not drawn) [Compound 327]
CNc1ncc(-c2cc(NC[C@@H](C)c3ccnc4c3OCCO4)ncn2)cn1 [Compound 462, (S)—N^6-(2-(2,3-dihydro-[1,4]dioxino[2,3-b]pyridin-8-yl)propyl)-N^2′-methyl-[4,5′-bipyrimidine]-2′,6-diamine]
CNC(=O)c1ccnc2c([C@H](C)CNc3cc(-c4cnc(O)nc4)ncn3)cccc12 [Compound 768]
CNC(=O)c1ccc(C(C)CNc2cc(-c3cnc4c(cnn4CC(C)(C)O)c3)ncn2)c(OC)c1 (stereo not drawn) [Compound 274]
CNC(=O)c1ccc([C@H](C)CNc2cc(-c3ccc(NCC4CC4)nc3)ncn2)c(OC)c1 [Compound 364]
CNC(=O)c1ccnc2c([C@H](C)CNc3cc(-c4ccc(C(C)OC)cc4)ncn3)cccc12 (stereo partly drawn) [Compound 811]
CCOc1ccccc1CCNc1cc(-c2ccc(N3CCN(CCO)CC3)nc2)ncn1 [Compound 94]
C[C@H](CNc1cc(-c2cnc3c(cnn3C3CNC3)c2)ncn1)c1ccnc2c1OCCO2 [Compound 527]
CNC(=O)c1c(F)cnc2c([C@H](C)CNc3cc(-c4cnc(C)c(F)c4)ncn3)cccc12 [Compound 973]
CNC(=O)c1ccc([C@H](C)CNc2cc(-c3ccc4c(c3)ncn4C)ncn2)c(OC)c1 [Compound 263]
CNC(=O)c1ccnc2c([C@H](C)CNc3cc(-c4cnc(OC)c(N)c4)ncn3)ccc(F)c12 [Compound 910]
CNC(=O)c1ccnc2c([C@H](C)CNc3cc(-c4ccc(CC(C)C)nc4)ncn3)cccc12 [Compound 816]
CNC(=O)c1ccnc2c([C@H](C)CNc3cc(-c4ccc(C(=O)N5CCN(C)CC5)cc4)ncn3)cccc12 [Compound 770]
Cc1ccc(-c2cc(NCC(C)c3cncnc3OC3CCC3)ncn2)cn1 (stereo not drawn) [Compound 299]
CNC(=O)c1ccc(C(C)CNc2cc(-c3ccc(OCCSC)nc3)ncn2)c(OC)c1 (stereo not drawn) [Compound 323]
CNC(=O)c1ccnc2c([C@H](C)CNc3cc(-c4cnc(C(C)C)nc4)ncn3)ccc(F)c12 [Compound 854]
COc1cc(-c2cc(NC[C@@H](C)c3ccnc4c3OCC4)ncn2)cnc1OC [Compound 595]
C=C(C)CNc1ccc(-c2cc(NC[C@@H](C)c3ccc(C(=O)NC)cc3OC)ncn2)cn1 [Compound 389]
CNC(=O)c1ccnc2c([C@H](C)CNc3cc(-c4ccc(C)nc4)ncn3)ccnc12 [Compound 624]
COc1cc(C(=O)NCC(F)F)ccc1C(C)CNc1cc(-c2ccc(C)nc2)ncn1 (stereo not drawn) [Compound 296]
COCCn1ncc2cc(-c3cc(NCC(C)c4ccsc4OC)ncn3)cnc21 (stereo not drawn) [Compound 258]
COc1ccsc1C(C)CNc1cc(-c2cnc3c(cnn3C3CCN(C)CC3)c2)ncn1 (stereo not drawn) [Compound 262]
COc1ccccc1CCNc1cc(-c2cnc3[nH]ccc3c2)ncn1 [Compound 8]
CNC(=O)c1ccnc2c([C@H](C)CNc3cc(-c4cnc(C(C)C)nc4)ncn3)cccc12 [Compound 849]
CN1CCN(c2ccc(-c3cc(NCCc4ccccc4OC4CC4)ncn3)cn2)CC1 [Compound 87]
CCOc1ccccc1[C@H](C)CNc1cc(-c2ccc(C)nc2)ncn1 [Compound 110]
CNC(=O)c1ccnc2c([C@H](C)CNc3cc(-c4cnc(N5CCOCC5)c(C#N)c4)ncn3)cccc12 [Compound 946]
CC(=O)c1ccc(-c2cc(NC[C@@H](C)c3ccnc4c3OCC4)ncn2)cc1 [Compound 596]
